In experiment [1] the target is T1, acetylcholinesterase from electric eel (Electrophorus electricus, UniProt O42275).
T1 construct: purchased Sigma-Aldrich (Steinheim, Germany) Type V-S
The experiment can be described thus: biochemical. Conditions: Ellman test, electric eel AChE. Here is the method: Lyophilized powder of acetylcholinesterase from electric eel source (AChE, E.C. 3.1.1.7, Type V-S, 1000 unit) was purchased from Sigma-Aldrich (Steinheim, Germany). 5,5'-Dithiobis-(2-nitrobenzoic acid, DTNB), potassium dihydrogen phosphate (KH2PO4), dipotassium hydrogen phosphate (K2HPO4), potassium hydroxide (KOH), sodium hydrogen carbonate (NaHCO3), and acetylthiocholine iodide were purchased from Fluka (Buchs, Switzerland).
According to the literature, the Ellman test was performed for assessment of the anticholinesterase activity of intended compounds in vitro. […] After rapid and immediate mixing the change of absorption was measured at 412 nm. The blank reading contained 3 ml buffer, 200 µl water, 100 µl DTNB and 20 µl substrate. The reaction rates were calculated, and the percent inhibition of test compounds was determined. Each concentration was analyzed in triplicate, and IC50 ± SD values were determined graphically from inhibition curves (log inhibitor concentration vs percent of inhibition) ([21], [22]).
For orientation: DTNB colorimetry detects thiols as they appear.

For the next experiment, the target named is acetylcholinesterase. Also on record: method as in Sugimoto and collegues [20]. Conditions: in Figure 2; ref Sugimoto and collegues [20]; read-out: IC50 of lead compound; cited from earlier work.
[2] abbreviates: preincubated 15 min at 25 °C, pH 8.0, triplicate, read-out: IC50 (μM ± SD), acetylcholinesterase inhibitory activity.

The structures appear in SMILES notation. Where two headings read alike, the source gives them in different places.

The values below come from paper PMC3874090, “Synthesis and Evaluation of Anti-acetylcholinesterase Activity of 2-(2-(4-(2-Oxo-2-phenylethyl)piperazin-1-yl) ethyl)Isoindoline-1,3-dione Derivatives with Potential Anti-Alzheimer Effects” (Iranian Journal of Basic Medical Sciences, 2013).

T1 sequence (O42275 24-633): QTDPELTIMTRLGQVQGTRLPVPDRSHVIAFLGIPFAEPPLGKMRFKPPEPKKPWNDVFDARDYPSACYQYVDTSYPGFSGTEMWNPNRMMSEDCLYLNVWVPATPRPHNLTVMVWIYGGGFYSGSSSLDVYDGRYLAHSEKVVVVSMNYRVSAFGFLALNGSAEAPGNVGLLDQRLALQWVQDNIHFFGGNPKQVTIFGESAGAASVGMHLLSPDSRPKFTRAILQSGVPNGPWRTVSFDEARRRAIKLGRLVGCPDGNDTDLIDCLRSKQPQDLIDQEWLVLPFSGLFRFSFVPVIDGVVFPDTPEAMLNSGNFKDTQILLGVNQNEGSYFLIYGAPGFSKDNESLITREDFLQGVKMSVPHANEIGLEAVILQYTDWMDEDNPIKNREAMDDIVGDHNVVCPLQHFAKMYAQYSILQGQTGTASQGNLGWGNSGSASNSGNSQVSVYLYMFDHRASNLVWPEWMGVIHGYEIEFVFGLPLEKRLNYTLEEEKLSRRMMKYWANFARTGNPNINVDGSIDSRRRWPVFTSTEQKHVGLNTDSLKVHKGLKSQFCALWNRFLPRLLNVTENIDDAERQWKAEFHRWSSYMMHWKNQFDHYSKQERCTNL

The IC50 is the point on the concentration scale where inhibition reaches its midpoint. Turning to `O=C(CN1CCN(CCN2C(=O)c3ccccc3C2=O)CC1)c1ccccc1` [Compound 4a, 2-(2-(4-(2-Oxo-2-phenylethyl)piperazin-1-yl)ethyl)isoindoline-1,3-dione], in experiment [1] (setting [2]), the IC50 turned out to be 45.6 ± 2.78 µM.
Same read-out and setting: the same measure for `O=C(CN1CCN(CCN2C(=O)c3ccccc3C2=O)CC1)c1cccc(Cl)c1` [Compound 4c, 2-(2-(4-(2-(3-Chlorophenyl)-2-oxoethyl)piperazin-1-yl)ethyl)isoindoline-1,3-dione]: 28.2 ± 2.3 µM.
Turning to `O=C1c2ccccc2C(=O)N1CCC1CCN(Cc2ccccc2)CC1` [Compound A], the IC50 at acetylcholinesterase was 0.03 µM.
Turning to `O=C(CN1CCN(CCN2C(=O)c3ccccc3C2=O)CC1)c1ccc2ccccc2c1` [Compound 4e, 2-(2-(4-(2-(Naphthalen-2-yl)-2-oxoethyl)piperazin-1-yl)ethyl)isoindoline-1,3-dione], the IC50 in experiment [1] (setting [2]) was 40.5 ± 2.47 µM.
Same read-out and setting: the same measure for `O=C(CN1CCN(CCN2C(=O)c3ccccc3C2=O)CC1)c1ccc(Cl)cc1Cl` [Compound 4d, 2-(2-(4-(2-(2,4-Dichlorophenyl)-2-oxoethyl)piperazin-1-yl)ethyl)isoindoline-1,3-dione]: 63 ± 4.06 µM.
With `O=C(CN1CCN(CCN2C(=O)c3ccccc3C2=O)CC1)c1ccc(F)cc1` [Compound 4b, 2-(2-(4-(2-(4-Fluorophenyl)-2-oxoethyl)piperazin-1-yl)ethyl)isoindoline-1,3-dione], the half-maximal inhibitory concentration (IC50) in experiment [1] (read-out: IC50, acetylcholinesterase inhibition) came out at 16.4 ± 1.07 µM.
